# Results from article PMC9506254, “Self-Emulsifying Formulations to Increase the Oral Bioavailability of 4,6,4′-Trimethylangelicin as a Possible Treatment for Cystic Fibrosis” (Pharmaceutics, 2022).
# Key:
# [1] = Solubility of TMA in oils, surfactants, co-surfactants/co-solvents; type: physicochemical; settings: 25 °C, 24 h, n = 3
# Procedure: The solubility of TMA in different oils, surfactants, co-surfactants/co-solvent was determined by pouring an excess of TMA in a 2 mL glass vial containing 1 g of each excipient. The mixtures were vortexed and kept at 25 °C for 24 h, and then the samples were centrifuged at 15,000× g rpm for 10 min to remove the undissolved drug. The supernatant was diluted with a suitable solvent and the TMA was quantified by HPLC (Agilent 1220 Infinity LC, Agilent Technologies, Santa Clara, CA, USA) equipped with a UV-vis detector and a Zorbax 300SB C 18 column (4.6 × 250 mm, 5 µm, Agilent Technologies, Santa Clara, CA, USA). For the analysis of the organic solutions of TMA, a volume of 20 µL was injected into the column and a mixture of methanol and water (95:5) was used as mobile phase with a flow rate of 0.8 mL/min. Instead, for the analysis of aqueous solutions, 100 µL of sample was injected and a mixture 75:25 of methanol and water was used as mobile phase at a flow rate of 0.9 mL/min. The UV was set at a wavelength of 251 nm.
# [2] = In vitro dissolution test in simplified FaSSIF and FeSSIF; type: physicochemical; settings: FeSSIF compared with FaSSIF
# Procedure: In vitro drug dissolution tests were performed using the USP 24 method with a dissolution apparatus 2 (Sotax AT7 Smart, Sotax, Allschwil, Switzerland) at 100 rpm. Dissolution tests were carried out under sink conditions at 37 ± 0.5 °C in 900 mL of two simplified simulated intestinal fluids to simulate the fed and fasted states. The composition of simplified FaSSIF (fasted-state simulated intestinal fluid) and FeSSIF (fed-state simulated intestinal fluid) buffers were those reported by Zoeller and Klein [24]. Samples (1 mL) were withdrawn at 5, 10, 15, 30, 45, 60, 90, 120, 240, and 300 min and the volume removed was replaced with an equal volume of temperature-equilibrated media. The samples were filtered through a 0.45 µm acetate cellulose filter and the TMA concentration was determined by HPLC-UV using the method reported in Section 2.3. The results were averaged from three replicated experiments.
# [3] = Metabolic stability with human liver microsomes; type: in vitro ADME; settings: 1 µM, 37 °C, NADPH, pH 7.4
# Procedure: The metabolic stability of TMA was assessed by incubating the compound with human liver microsomes (HLMs) (BD Bioscience, Franklin Lakes, NJ, USA), as already described. Briefly, TMA was dissolved in DMSO (1 µM) and incubated at 37 °C for 10 and 30 min in 0.1 M phosphate buffer containing 200 µg of microsomes and 10 mM NADPH, pH 7.4. At the end of incubation, the reaction was stopped by addition of 200 µL cold acetonitrile. After centrifugation for 10 min at 12,000× g (Hettich Mikro 120 benchtop centrifuge), supernatants were collected and analyzed by means of ultra-high pressure liquid chromatography coupled to high-resolution mass spectrometry (UHPLC-HRMS) to assess metabolic stability of TMAas described in Section 2.8.1. […]
# The UHPLC-HRMS system was equipped with Agilent 1260 Infinity II LC System coupled to an Agilent 6545 LC/Q-TOF mass analyzer (Agilent Technologies, Palo Alto, Santa Clara, CA, USA). […] The mobile phase gradient profile was as follows (t in min): t0–3 2% B; t3–18 2–100% B, t18–20 100% B; t20–30 0% B. The MS conditions were: electrospray (ESI) ionization in positive mode, gas temperature 325 °C, drying gas 10 L/min, nebulizer 20 psi, sheath gas temperature 400 °C, sheath gas flow 12 L/min, VCap 4000 V, nozzle voltage 0 V, fragmentor 180 V. Centroid full scan mass spectra were recorded in the range 100–1000 m/z with a scan rate of 1 spectrum/s. […]
# [4] = In vivo pharmacokinetics after oral gavage; settings: mice
# Procedure: All the experimental procedures involving animals were conducted in compliance with national and international guidelines for the handling and use of experimental animals (Authorization no. 853-2018-PR, 11 November 2018) and appropriately designed to minimize their pain or discomfort. All the animals were maintained in IVC cages under controlled conditions, with a 12/12 h dark/light cycle and free access to food and drink. For the pharmacokinetic analysis, a 20 mg/kg dose of TMA, suspended in water or dissolved in formulations A.1 and B.1, was administered to mice by oral gavage, after an overnight fast. Plasma samples (n = 3 per time point) were collected from the submandibular plexus before and 0.25, 0.5, 1, 2, 3, 4, 6, 24, and 48 h after the administration of TMA. The main PK parameters were calculated by means of the Microsoft Excel plug-in PK Solver, using standard formulae [25]. The data were analyzed using the software GraphPad Prism 8.0 (GraphPad Software Inc., San Diego, CA, USA) ver. 8.0, and, if not otherwise stated, are expressed as mean ± SD. Statistical analysis was performed using Student’s t test or one-way ANOVA, when appropriate, and p < 0.05 was considered statistically significant.
# TMA was extracted from the samples by treating 100 µL of plasma with 300 µL of cold acetonitrile spiked with 80 nM of IS, and then the samples were centrifuged for 10 min at 12,000× g (Hettich Mikro 120 benchtop centrifuge) and 25 °C. 10 μL of the supernatant were injected into the UHPLC system. The quantification of TMA was carried out by external calibration of the normalized signals using a seven-point calibration curve obtained by spiking blank plasma with TMA in the range 20–3000 nM. […] The metabolites related to TMA were quantified in plasma by comparing the normalized area with the TMA calibration curve as there were no suitable analytical standards available. The data obtained should be considered semiquantitative, as it is not possible to ensure the same molar response factor for TMA and its metabolites under electrospray conditions.
# [5] = Lipophilicity (Log p) and BCS classification from the literature; type: physicochemical; settings: inferred from Log p and low water solubility
# [6] = 20 mg/kg TMA, oral gavage, overnight fast, plasma TMA, mean ± S.D.
Molecule,TMA Solubility ([1]; in Capryol PGMC (co-surfactant)) [µg/mL],TMA Solubility ([1]; in Cremophor EL (surfactant)) [µg/mL],TMA Solubility ([1]; in Ethanol (co-solvent)) [µg/mL],TMA Solubility ([1]; in Labrafac Lipophile WL1349 (oil)) [µg/mL],TMA Solubility ([1]; in Lauroglycol FCC (co-surfactant)) [µg/mL],TMA Solubility ([1]; in Maisine CC (oil)) [µg/mL],TMA Solubility ([1]; in Transcutol HP (co-solvent)) [µg/mL],TMA Solubility ([1]; in Tween 80 (surfactant)) [µg/mL],Amount of free TMA dissolved [2],Initial amount of TMA metabolized by HLM enzymes ([3]; 10 min) [%],Degradation of TMA by HLM enzymes ([3]; 30 min) [%],"CL/F ([4]; 20 mg/kg TMA, oral gavage, overnight fast, mean ± S.D.) [mL/h/g]","AUC0-inf [4, 6] [µM·h]","Cmax [4, 6] [nM]","Tmax [4, 6] [h]","t1/2 [4, 6] [h]",BCS classification system class [5],"TMA-related metabolites in mouse plasma ([4]; 20 mg/kg TMA oral, semiquantitative, TMA calibration curve, LOD about 10 nM)"
"Cc1cc(=O)oc2c1cc(C)c1occ(C)c12 [TMA, 4,6,4′-trimethylangelicin]",7346 ± 380,9091 ± 217,2509 ± 52,4639 ± 170,6484 ± 92,6340 ± 377,9568 ± 131,7040 ± 120,increases significantly,67 ± 15,90 ± 15,0.073 ± 0.029,0.29783 ± 0.11913,186 ± 21.1,0.38 ± 0.18,1.71 ± 0.16,class II,–
TMA-D,–,–,–,–,–,–,–,–,–,–,–,–,–,–,–,–,–,main metabolite
